The term melting point denotes the temperature of the solid-liquid transition.

Series [1] concerns Yellow Fever Mosquito (Aedes aegypti, AEDSAE). The experiment in a line: Bioassay on Yellow Fever Mosquito (YFM), 96-well plate larval assay. Format: in vivo. As to conditions: Species YFM (Yellow Fever Mosquito). The method in brief:
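Aedes aegypti larvae (about 1 day old) in liver-powder water were added to plates dispensed from DMSO master plates (4000 ppm stock) diluted with 90:10 water/acetone; six replicate plates per master. Lidded plates were held at room temperature for 3 days, then each well was scored for mortality.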

Series [2] has as its system Beet Armyworm (Spodoptera exigua, LAPHEG). Description: Bioassay on Beet Armyworm (BAW), 128-well diet tray assay. Format: in vivo. The note with it: Species BAW (Beet Armyworm), read-out: BAW (Biological Results, rating). The method in brief: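 Test molecule dissolved in acetone-water 90:10 is applied at 50 μg/cm^2 onto artificial diet and allowed to dry. Second instar larvae, one to five per well, are then added, and trays are vented and kept at 25° C. for five to seven days before mortality is scored.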

In series [3] the test system is Cabbage Looper (Trichoplusia ni, TRIPNI). Description: Bioassay on Cabbage Looper (CL), 128-well diet tray assay. Type of series: in vivo. The note with it: Trichoplusia ni; Species CL (Cabbage Looper); read-out: CL (Biological Results, rating). The method in brief: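 Test molecule is dissolved in 90:10 acetone-water and applied at 50 μg/cm^2 onto artificial diet, then dried. One to five second-instar larvae go into each of eight wells. Trays, sealed but vented, stay at 25° C., 14:10 light-dark, five to seven days, after which mortality is averaged.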

Series [4] relates to Green Peach Aphid (Myzus persicae, MYZUPE). The experiment in a line: Bioassay on Green Peach Aphid (GPA), foliar spray on infested cabbage seedlings. Format: in vivo. The note with it: foliar, 72 h, Species GPA (Green Peach Aphid), read-out: GPA (Biological Results, rating). The method in brief: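 Cabbage seedlings (2-3 true leaves) infested with 20-50 wingless adult and nymph aphids one day before treatment; sprayed to runoff at 200 ppm in 0.025% Tween 20 water with 20% acetone/methanol, four pots per treatment. Held three days at about 25° C; live aphids counted, % control by Abbott's correction versus solvent check.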

`O=C(O)C1C(c2cccc(C(F)(F)F)c2)C1(Cl)Cl` (stereo not shown) gave a melting point of 86 to 88 °C. On the same count and under the same terms, under `CCc1ccc(N)cc1C(=O)Nc1ccc(F)cc1` stands 129 to 131 °C; under `COc1ccc(C2C(c3cc(F)c(Br)c(F)c3)C2(Cl)Cl)cc1` (stereo not shown), 104 to 109.3 °C; under `Cc1ccc(C(=O)Nc2ccc(F)cc2)cc1[N+](=O)[O-]`, 136 to 138 °C. On the same count and under the same terms, in the case of `O=C(Nc1ccc(F)cc1)c1cc([N+](=O)[O-])ccc1OC(F)(F)F` it was 175 to 177 °C. As for `O=C(O)C1C(c2cc(F)cc(Cl)c2)C1(Cl)Cl` (stereo not shown), the melting point lay within 138 to 140 °C. For `Cc1cc([N+](=O)[O-])ccc1N(C)C(=O)OC(C)(C)C`, the melting point lay in the range of 98 to 101 °C.

Compound `O=C(Nc1ccc(F)cc1)c1cc(Cl)cc([N+](=O)[O-])c1` showed a melting point of 209 to 210 °C. As for `O=C(Nc1ccc(F)c(C(F)(F)F)c1)c1cc([N+](=O)[O-])ccc1Cl`, the melting point lay in the range of 192 to 202 °C. The compound `O=C(O)C1C(c2ccc(F)c(Cl)c2)C1(Cl)Cl` (stereo not shown) [C420] displayed a melting point of 119 to 121 °C.

As to `COc1c(Cl)cc(C2C(C(=O)O)C2(Cl)Cl)cc1Cl` (stereo not shown), the melting point was in the range of 161 to 164 °C. The same measure, in the same setting: in the case of `COc1ccc(/C=C/c2ccc(Cl)c(Cl)c2)cc1` it was 91 to 94 °C; in that of `COc1c(Cl)cc(C2C(C(=O)Nc3ccc(Cl)c(C(=O)O)c3)C2(Cl)Cl)cc1Cl` (stereo not shown), 227 to 231 °C. Still for that read-out and setting: in the case of `Cc1ccc([N+](=O)[O-])cc1NC(=O)OC(C)(C)C` it was 137 to 145 °C. The same measure, in the same setting: in the case of `Cc1cc(C2C(C(=O)O)C2(Cl)Cl)cc(Cl)c1Cl` (stereo not shown) it was 157 to 159 °C; in that of `Nc1ccc(Cl)c(C(=O)Nc2ccc(-c3ncco3)cc2)c1`, 227 °C (dec.); in that of `O=C(O)C1C(c2ccc(OC(F)(F)F)c(Cl)c2)C1(Cl)Cl` (stereo not shown), 134 to 136 °C.

Regarding `Nc1ccc(OC(F)(F)F)c(C(=O)Nc2ccc(F)cc2)c1`, the melting point lay within 115 to 117 °C. With `O=C(O)C1C(c2cc(Cl)c(Cl)cc2Cl)C1(Cl)Cl` (stereo not shown), the melting point fell in the range of 189 to 192 °C.

In turn, `C=Cc1ccc([N+](=O)[O-])cc1C(=O)Nc1ccc(F)cc1` came in with a melting point of 158 to 160 °C.

The compound `O=C(O)C1C(c2ccc(Cl)c(F)c2)C1(Cl)Cl` (stereo not shown) had a melting point of 140 to 142 °C. For the compound `CC(C)(C)OC(=O)N(C(=O)OC(C)(C)C)c1ccc(F)cc1N`, the melting point fell in the range of 104 to 115 °C.

As to `N#Cc1cc(Cl)cc(C2C(C(=O)O)C2(Cl)Cl)c1` (stereo not shown), the melting point was in the range of 173 to 175 °C. Still for that read-out and setting: in the case of `Cc1cc(NC(=O)OC(C)(C)C)ccc1NC(=O)c1cccc(N)c1` it was 143 to 161 °C; in that of `O=C(O)C1C(c2cc(C(F)(F)F)cc(C(F)(F)F)c2)C1(Cl)Cl` (stereo not shown), 112 to 114 °C; in that of `O=C(O)C1C(c2ccc(C(F)(F)C(F)(F)F)cc2)C1(Cl)Cl` (stereo not shown), 116 to 118 °C. Same read-out and setting: in the case of `Cc1cc(Cl)cc(C2C(C(=O)O)C2(Cl)Cl)c1` (stereo not shown) it was 124 to 126 °C. The compound `Cc1ccc([N+](=O)[O-])cc1N(C)C(=O)OC(C)(C)C` registered a melting point of 57 to 60 °C. Compound `O=C(Nc1ccc(F)cc1)c1cccc([N+](=O)[O-])n1` yielded a melting point of 169 to 170 °C. As to `Cc1cc(NC(=O)OC(C)(C)C)ccc1NC(=O)c1cc([N+](=O)[O-])ccc1Cl`, the melting point lay within 195 to 200 °C. The same measure, in the same setting: under `CCOc1ccc(C2C(C(=O)O)C2(Cl)Cl)cc1` (stereo not shown) stands 129 to 130 °C; under `O=C(O)c1cc(NC(=O)C2C(c3cc(Cl)cc(Cl)c3)C2(Cl)Cl)c(Cl)cc1Cl` (stereo not shown), 263 to 266 °C; under `O=C(O)C1C(c2ccc(F)c(Cl)c2)C1(Cl)Cl` (stereo not shown) [C16], 121 to 123 °C. Still for that read-out and setting: in the case of `CC(C)(C)OC(=O)N(C(=O)OC(C)(C)C)c1c(N)cc(F)cc1F` it was 102 to 107 °C; in that of `O=C(O)C1C(c2cc(F)c(Br)c(F)c2)C1(Cl)Cl` (stereo not shown), 178.3 to 188.6 °C. With `Nc1cc(Cl)cc(C(=O)Nc2ccc(F)cc2)c1`, the melting point fell in the range of 133 to 136 °C. Still for that read-out and setting: in the case of `O=C(O)c1cc(NC(=O)C2C(c3cc(Cl)cc(Cl)c3)C2(Cl)Cl)cc(Cl)c1Cl` (stereo not shown) it was 231 to 235 °C; in that of `O=C(Nc1ccc(-c2ncco2)cc1)c1cc([N+](=O)[O-])ccc1Cl`, 192 to 194 °C; in that of `O=C(O)C1C(c2cc(Cl)cc(Br)c2)C1(Cl)Cl` (stereo not shown), 161 to 163 °C. In turn, `Cc1c(Cl)cc(C2C(C(=O)O)C2(Cl)Cl)cc1Cl` (stereo not shown) gave a melting point of 181 to 183 °C.

As to `O=C(O)C1C(c2cc(Cl)cc(C(F)(F)F)c2)C1(Cl)Cl` (stereo not shown), the melting point was 113 to 115 °C. In the case of `Nc1ccc(Cl)c(C(=O)Nc2ccc(-n3cccn3)cc2)c1`, the melting point lay within 50 to 81 °C. Still for that read-out and setting: in the case of `O=C(O)C1C(c2cc(Br)cc(Br)c2)C1(Cl)Cl` (stereo not shown) it was 157 to 159 °C; in that of `O=C(Nc1ccc(-n2cccn2)cc1)c1cc([N+](=O)[O-])ccc1Cl`, 200 to 205 °C. Regarding `O=C(Nc1c(F)cc(F)cc1F)c1cc(NC(=O)[C@H]2[C@H](c3cc(Cl)cc(Cl)c3)C2(Cl)Cl)ccc1Cl` (relative stereo) [F24, trans-2-Chloro-5-(2,2-dichloro-3-(3,5-dichlorophenyl)cyclopropane-1-carboxamido)-N-(2,4,6-trifluorophenyl)benzamide], the “YFM (Biological Results, rating)” value in series [1] is reported as “A (80-100)”. For the same compound, the pest or weed control at 50 µg/cm2 in series [2] and in series [3] was 50 to 100% throughout. In addition, the pest or weed control at 200 µg/mL in series [4] was in the range of 80 to 100%.

Consider `N#Cc1ccc(NC(=O)c2cc(NC(=O)[C@H]3[C@H](c4cc(Cl)cc(Cl)c4)C3(Cl)Cl)ccc2Cl)cn1` (relative stereo) [F33, trans-2-Chloro-N-(6-cyanopyridin-3-yl)-5-(2,2-dichloro-3-(3,5-dichlorophenyl)cyclopropane-1-carboxamido)benzamide], for which the “YFM (Biological Results, rating)” value in series [1] was “A (80-100)”. Further, the pest or weed control at 50 µg/cm2 in series [2] and in series [3] was 50 to 100% throughout. For the same compound, in series [4], the pest or weed control at 200 µg/mL lay within 0 to 80%.

The record behind these values is patent US10219516B2, “Molecules having pesticidal utility, and intermediates, compositions, and processes, related thereto” (priority 2015, dated 2019).
